Earlier results in patent publication US20070105848A1 (priority 2005, published 2007).

Assays:
methemoglobinemia = conditions: i.v., 1 mg/kg body weight
adult humans = conditions: one week to 19 months, 100 mg b.i.d. or t.i.d. orally or 100 mg i.v.
[1] = biological target: Plasmodium falciparum glutathione reductase (Plasmodium falciparum, UniProt O15770)
Sequence of Plasmodium falciparum glutathione reductase (O15770 47-546): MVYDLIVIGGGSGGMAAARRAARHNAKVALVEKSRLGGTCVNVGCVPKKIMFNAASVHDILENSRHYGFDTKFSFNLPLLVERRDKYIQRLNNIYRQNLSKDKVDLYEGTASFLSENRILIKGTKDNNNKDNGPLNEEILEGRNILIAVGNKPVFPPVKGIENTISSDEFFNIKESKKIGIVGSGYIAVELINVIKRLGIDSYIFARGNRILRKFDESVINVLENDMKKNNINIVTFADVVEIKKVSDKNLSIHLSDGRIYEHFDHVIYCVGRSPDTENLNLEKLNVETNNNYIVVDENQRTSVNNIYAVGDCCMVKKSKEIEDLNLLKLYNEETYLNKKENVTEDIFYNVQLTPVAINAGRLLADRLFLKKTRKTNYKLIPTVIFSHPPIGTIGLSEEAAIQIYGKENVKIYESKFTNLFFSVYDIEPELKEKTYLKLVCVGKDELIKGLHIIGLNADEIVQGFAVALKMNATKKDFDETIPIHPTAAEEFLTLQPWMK

In the case of `CN(C)c1ccc2nc3ccc(N(C)C)cc3[s+]c2c1.[Cl-]` [Methylene blue, 3,7-bis(dimethylamino)-phenothiazin-5-ium chloride], the treatment of methemoglobinemia (methemoglobinemia) is given as “effective”, the “side effects on prolonged administration” value (adult humans) is given as “minimal side effects” and the “inhibition of Plasmodium falciparum glutathione reductase” value [1] is given as “selective inhibitor”. For the same molecule, the antimalarial activity (malaria) was “intrinsic antimalarial activity” and the chloroquine sensitization (malaria) was “can act as a chloroquine sensitizer”.
